Measurements from PMC10819888, “Benzimidazole-Based Derivatives as Apoptotic Antiproliferative Agents: Design, Synthesis, Docking, and Mechanistic Studies” (Molecules, 2024).

Assays:
Format in all cases: cell-based, human
UACC-257 = test: NCI-60 five-dose assay; conditions: UACC-257, Melanoma
MDA-MB-435 = test: NCI-60 five-dose assay; conditions: MDA-MB-435, Melanoma
MALME-3M = test: NCI-60 five-dose assay; conditions: MALME-3M, Melanoma
BT-549 = test: NCI-60 five-dose assay; conditions: Homo sapiens, BT-549, Breast Cancer
Leukemia subpanel = test: NCI-60 five-dose assay, subpanel; conditions: Leukemia
NCI-H460 = test: NCI-60 five-dose assay; conditions: NCI-H460, Non-Small Cell Lung Cancer
SNB-19 = test: NCI-60 five-dose assay; conditions: SNB-19, CNS Cancer
Prostate Cancer subpanel = test: NCI-60 five-dose assay, subpanel; conditions: Prostate Cancer
LOX IMVI = test: NCI-60 five-dose assay; conditions: LOX IMVI, Melanoma
CCRF-CEM = test: NCI-60 five-dose assay; conditions: CCRF-CEM, Leukemia
NCI-H322M = test: NCI-60 five-dose assay; conditions: NCI-H322M, Non-Small Cell Lung Cancer
Colon Cancer subpanel = test: NCI-60 five-dose assay, subpanel; conditions: Colon Cancer
Breast Cancer subpanel = test: NCI-60 five-dose assay, subpanel; conditions: Breast Cancer
UACC-62 = test: NCI-60 five-dose assay; conditions: UACC-62, Melanoma
HT29 = test: NCI-60 five-dose assay; conditions: HT29, Colon Cancer
HOP-62 = test: NCI-60 five-dose assay; conditions: HOP-62, Non-Small Cell Lung Cancer
T-47D = test: NCI-60 five-dose assay; conditions: T-47D, Breast Cancer
CNS Cancer subpanel = test: NCI-60 five-dose assay, subpanel; conditions: CNS Cancer
NCI/ADR-RES = test: NCI-60 five-dose assay; conditions: NCI/ADR-RES, Ovarian Cancer
COLO 205 = test: NCI-60 five-dose assay; conditions: COLO 205, Colon Cancer
NCI-H522 = test: NCI-60 five-dose assay; conditions: NCI-H522, Non-Small Cell Lung Cancer
NCI-H226 = test: NCI-60 five-dose assay; conditions: NCI-H226, Non-Small Cell Lung Cancer
SF-539 = test: NCI-60 five-dose assay; conditions: SF-539, CNS Cancer
TK-10 = test: NCI-60 five-dose assay; conditions: TK-10, Renal Cancer
HOP-92 = test: NCI-60 five-dose assay; conditions: HOP-92, Non-Small Cell Lung Cancer
[1] = Homo sapiens, read-out: GI50 Conc. per Cell Line
[2] = Homo sapiens, read-out: LC50 (the source's name)
[3] = Homo sapiens, average sensitivity of all subpanel cell lines, read-out: GI50 Subpanel MID b

`COc1ccc(C=NNC(=O)c2ccc3[nH]c(-c4ccc(Cl)cc4)nc3c2)cc1` [Compound 4g, N′-(4-Methoxybenzylidene)-2-(4-chlorophenyl)-1H-benzimidazole-5-carbohydrazide] was tested, and the GI50 (UACC-257; [1]) was 3.27 µM, the CC50 (UACC-257; [2]) was 60 µM and the TGI (UACC-257) was 10.10 µM. The GI50 (MDA-MB-435; [1]) was 3.11 µM, the CC50 (MDA-MB-435; [2]) was 45.5 µM and the TGI (MDA-MB-435) was 9.84 µM. It also gave an LC50 (MALME-3M; Homo sapiens) of 7.9 µM, a GI50 (MALME-3M; [1]) of 1.67 µM and a TGI (MALME-3M) of 3.63 µM. For the same molecule, the GI50 (BT-549; read-out: GI50 Conc. per Cell Line) was 3.36 µM, the CC50 (BT-549; read-out: LC50 (the source's name)) was over 100 µM and the GI50 (Leukemia subpanel; [3]) was 2.88 µM. For the same molecule, the “GI50 Selectivity Ratio (MID a/MID b)” value (Leukemia subpanel) was 0.87, the LC50 (NCI-H460; Homo sapiens) was 7.05 µM and the GI50 (NCI-H460; [1]) was 1.83 µM. The TGI (NCI-H460) was 3.59 µM, the GI50 (SNB-19; [1]) was 3.13 µM and the CC50 (SNB-19; [2]) was 49.6 µM. The TGI (SNB-19) was 7.95 µM, the GI50 (Prostate Cancer subpanel; [3]) was 1.81 µM and the “GI50 Selectivity Ratio (MID a/MID b)” value (Prostate Cancer subpanel) was 1.39. The GI50 (LOX IMVI; [1]) was 2.19 µM, the CC50 (LOX IMVI; [2]) was 7.34 µM and the TGI (LOX IMVI) was 4.01 µM. The TGI (CCRF-CEM) was over 100 µM, the GI50 (CCRF-CEM; [1]) was 4.9 µM and the CC50 (CCRF-CEM; [2]) was over 100 µM. For the same molecule, the GI50 (NCI-H322M; [1]) was 2.49 µM, the CC50 (NCI-H322M; [2]) was 55.4 µM and the TGI (NCI-H322M) was 7.20 µM. The “GI50 Selectivity Ratio (MID a/MID b)” value (Colon Cancer subpanel) was 0.96, the GI50 (Colon Cancer subpanel; [3]) was 2.63 µM and the “GI50 Selectivity Ratio (MID a/MID b)” value (Breast Cancer subpanel) was 1.12. The GI50 (Breast Cancer subpanel; [3]) was 2.24 µM, the GI50 (UACC-62; [1]) was 1.94 µM and the CC50 (UACC-62; [2]) was 10.9 µM. For the same molecule, the TGI (UACC-62) was 4.47 µM, the TGI (HT29) was 22.10 µM and the GI50 (HT29; Homo sapiens, HT-29, read-out: GI50 Conc. per Cell Line) was 3.09 µM. The CC50 (HT29; Homo sapiens, HT-29, read-out: LC50 (the source's name)) was over 100 µM, the TGI (HOP-62) was 6.37 µM and the GI50 (HOP-62; [1]) was 1.88 µM. It also gave a CC50 (HOP-62; [2]) of 53.6 µM, a GI50 (T-47D; Homo sapiens, T47D, read-out: GI50 Conc. per Cell Line) of 1.94 µM and a CC50 (T-47D; Homo sapiens, T47D, read-out: LC50 (the source's name)) of 30 µM. For the same molecule, the TGI (T-47D) was 4.83 µM, the “GI50 Selectivity Ratio (MID a/MID b)” value (CNS Cancer subpanel) was 1.15 and the GI50 (CNS Cancer subpanel; [3]) was 2.19 µM. For the same molecule, the GI50 (NCI/ADR-RES; [1]) was 7.81 µM, the CC50 (NCI/ADR-RES; [2]) was over 100 µM and the TGI (NCI/ADR-RES) was over 100 µM. It also gave a TGI (COLO 205) of 5.43 µM, a GI50 (COLO 205; [1]) of 1.94 µM and a CC50 (COLO 205; [2]) of 33 µM. It also gave a GI50 (NCI-H522; [1]) of 7.6 µM, a CC50 (NCI-H522; [2]) of over 100 µM and a TGI (NCI-H522) of 81.50 µM. For the same molecule, the GI50 (NCI-H226; [1]) was 1.79 µM, the CC50 (NCI-H226; [2]) was 13.5 µM and the TGI (NCI-H226) was 4.43 µM. It also gave a GI50 (SF-539; [1]) of 1.73 µM, a CC50 (SF-539; [2]) of 6.92 µM and a TGI (SF-539) of 3.46 µM. The GI50 (TK-10; [1]) was 2.95 µM, the CC50 (TK-10; [2]) was 56.7 µM and the TGI (TK-10) was 6.59 µM. For the same molecule, the TGI (HOP-92) was 4.11 µM, the LC50 (50% lethal concentration) (HOP-92; Homo sapiens) was 15.1 µM and the GI50 (HOP-92; [1]) was 1.52 µM.
